Measured values published in patent US8889702B2, “Derivatives of azaspiranyl-alkylcarbamates of 5-member heterocyclic compounds, preparation thereof and therapeutic use thereof” (Sanofi, priority 2009, dated 2014).

Assays:
[1] = molecular target: T1, enzyme FAAH (Fatty Acid Amide Hydrolase) (Mus musculus, UniProt O08914); test: radioenzymatic test: hydrolysis of anandamide [ethanolamine 1-3H] with FAAH, mouse brain membrane homogenates; type: biochemical; details: mouse brain membrane homogenate; preincubation 20 minutes at 25° C.; anandamide 10 μM; read-out: IC50 (concentration that inhibits 50% of the control enzymatic activity of FAAH)
T1 construct: The membrane homogenates are prepared extemporaneously by homogenizing the tissues; from tissue; host or cells: mouse brain (minus the cerebellum), membrane homogenate
T1 sequence (O08914 1-579): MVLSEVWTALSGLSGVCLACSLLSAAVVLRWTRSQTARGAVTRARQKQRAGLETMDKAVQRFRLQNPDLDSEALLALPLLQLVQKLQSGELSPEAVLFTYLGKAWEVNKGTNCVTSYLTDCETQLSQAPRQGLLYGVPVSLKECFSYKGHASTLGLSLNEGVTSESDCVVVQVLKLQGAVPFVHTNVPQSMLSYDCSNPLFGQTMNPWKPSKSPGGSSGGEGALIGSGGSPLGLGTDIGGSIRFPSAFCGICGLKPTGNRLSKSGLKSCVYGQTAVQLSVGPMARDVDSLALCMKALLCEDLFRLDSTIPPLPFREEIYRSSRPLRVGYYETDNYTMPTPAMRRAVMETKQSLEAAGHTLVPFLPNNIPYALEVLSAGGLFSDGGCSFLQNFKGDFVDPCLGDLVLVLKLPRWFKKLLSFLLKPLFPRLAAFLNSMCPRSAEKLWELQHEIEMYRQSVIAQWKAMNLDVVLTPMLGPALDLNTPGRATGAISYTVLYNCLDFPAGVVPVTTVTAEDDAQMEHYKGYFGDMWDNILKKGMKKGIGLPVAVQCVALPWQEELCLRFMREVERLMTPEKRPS
Experimental: The compounds of the invention underwent pharmacological tests to determine their inhibitory effect on the enzyme FAAH (Fatty Acid Amide Hydrolase).
Thus, mouse brains (minus the cerebellum) are removed and stored at −80° C. The membrane homogenates are prepared extemporaneously by homogenizing the tissues using a Precellys® machine in reaction buffer (10 mM Tris-HCl, pH=8, 150 mM NaCl and 1 mM ethylenediaminetetraacetic acid (EDTA)). The enzymatic reaction is performed in 96-well Multiscreen filtration plates in a final volume of 70 μL. Reaction buffer supplemented with fatty acid-free bovine serum albumin (BSA, 1 mg/ml) is used for the enzymatic reaction and the dilution of the compounds and of the anandamide [ethanolamine 1-^3H]. The reaction buffer containing BSA (43 μL/well), the diluted test compounds at different concentrations (7 μL/well containing 1% DMSO) and the membrane preparation (10 μL/well, i.e. 200 μg of tissue per test) are successively added to the wells. After preincubation for 20 minutes of the compounds with the enzyme at 25° C., the reaction is started by adding anandamide [ethanolamine 1-^3H]. (Specific activity of 15-20 Ci/mmol) diluted with cold anandamide (10 μL/well, final concentration of 10 μM, 0.01 μCi per test). After incubation for 20 minutes at 25° C., the enzymatic reaction is stopped by adding a […] of active charcoal prepared in 1.5M NaCl buffer and 0.5 M HCl (50 μL/well). The mixture is stirred for 10 minutes and the aqueous phase containing the ethanolamine [1-^3H] is then recovered by filtration under vacuum and counted by liquid scintillation.

male OF1 mice = test: test of analgesia: abdominal stretching induced with PBQ (phenylbenzoquinone); type: in vivo, mouse; details: 30 mg/kg p.o. at 120 minutes
Experimental: The in vivo activity of the compounds of the invention was evaluated in a test of analgesia.
Thus, the intraperitoneal (i.p.) administration of PBQ (phenylbenzoquinone, 2 mg/kg in 0.9% sodium chloride solution containing 5% ethanol) to male OF1 mice weighing 25 to 30 g causes abdominal stretching, on average 30 torsions or contractions within a period of 5 to 15 minutes after injection. The test compounds are administered orally (p.o.) or intraperitoneally (i.p.) suspended in Tween 80 at 0.5%, 60 minutes or 120 minutes before the administration of PBQ. Under these conditions, the compounds of the invention that are the most powerful reduce by 35% to 80% the number of stretches induced with PBQ, over a dose range of between 1 and 30 mg/kg.
For example, compound 5 of Table 1 reduces by 50% the number of stretches induced with PBQ, at a dose of 30 mg/kg p.o. at 120 minutes.

Row | Compound | IC50 [1] | melting point | reduction of the number of stretches induced with PBQ (male OF1 mice)
1 | NC(=O)c1cc(COC(=O)NC2CC3(CCN(c4ccc(-c5ccc(F)cc5)cn4)C3)C2)on1 (mixture of isomers) [Compound 10, 3-Carbamoylisoxazol-5-ylmethyl{6-[5-(4-fluorophenyl)pyridin-2-yl]-6-azaspiro[3.4]oct-2-yl}carbamate] | 2.3 nM | – | –
2 | CNC(=O)c1cc(COC(=O)NCC2CC3(CCN(c4ccc(-c5ccc(F)cc5)cn4)C3)C2)on1 (single isomer, unassigned) [Compound 12, 3-(Methylcarbamoyl)isoxazol-5-ylmethyl 6-[5-(4-fluorophenyl)pyridin-2-yl]-6-azaspiro[3.4]oct-2-ylmethylcarbamate] | 0.85 nM | 171 to 173 °C | –
3 | CNC(=O)c1cc(COC(=O)NCC2CC3(CCN(c4ccc(-c5ccc(F)cc5)cn4)C3)C2)on1 (single isomer, unassigned) [Compound 13, 3-(Methylcarbamoyl)isoxazol-5-ylmethyl 6-[5-(4-fluorophenyl)pyridin-2-yl]-6-azaspiro[3.4]oct-2-ylmethylcarbamate] | – | 180 to 182 °C | –
4 | CNC(=O)c1cc(COC(=O)NC2CC3(CCN(c4ccc(-c5ccc(F)cc5)cn4)C3)C2)on1 (single isomer, unassigned) [Compound 17, 3-(Methylcarbamoyl)isoxazol-5-ylmethyl{6-[5-(4-fluorophenyl)pyridin-2-yl]-6-azaspiro[3.4]oct-2-yl}carbamate] | – | 203 to 205 °C | –
5 | CNC(=O)c1cc(COC(=O)NC2CC3(CCN(c4ccc(-c5ccc(F)cc5)cn4)C3)C2)on1 (single isomer, unassigned) [Compound 18, 3-(Methylcarbamoyl)isoxazol-5-ylmethyl{6-[5-(4-fluorophenyl)pyridin-2-yl]-6-azaspiro[3.4]oct-2-yl}carbamate] | – | 194 to 196 °C | –
6 | NC(=O)c1cc(COC(=O)NC2CC3(CCN(c4ccc(Br)cn4)CC3)C2)on1 [Compound 4, 3-carbamoylisoxazol-5-ylmethyl[7-(5-bromopyridin-2-yl)-7-azaspiro[3.5]non-2-yl]carbamate] | 8.2 nM | – | –
7 | NC(=O)c1cc(COC(=O)NC2CC3(CCN(c4ccc(-c5ccc(F)cc5)cn4)CC3)C2)on1 [Compound 5, 3-Carbamoylisoxazol-5-ylmethyl{7-[5-(4-fluorophenyl)pyridin-2-yl]-7-azaspiro[3.5]non-2-yl}carbamate] | – | 216 to 218 °C | 50%
8 | NC(=O)c1cc(COC(=O)NCC2CC3(CCN(c4ccc5cc(F)ccc5n4)CC3)C2)on1 [Compound 6, 3-Carbamoylisoxazol-5-ylmethyl[7-(6-fluoroquinolin-2-yl)-7-azaspiro[3.5]non-2-yl]methylcarbamate] | 0.25 nM | 190 to 192 °C | –
9 | CNC(=O)c1cc(COC(=O)NC2CC3(CCN(c4ccc(-c5ccc(F)cc5)cn4)CC3)C2)on1 [Compound 8, 3-(Methylcarbamoyl)isoxazol-5-ylmethyl 7-[5-(4-fluorophenyl)pyridin-2-yl]-7-azaspiro[3.5]non-2-ylcarbamate] | 0.72 nM | 219 to 221 °C | –
10 | CNC(=O)c1cc(COC(=O)NC2CC3(CCN(c4ccc5cc(Cl)ccc5n4)CC3)C2)on1 [Compound 19, 3-(Methylcarbamoyl)isoxazol-5-ylmethyl[7-(6-chloroquinolin-2-yl)-7-azaspiro[3.5]non-2-yl]carbamate] | 1.8 nM | – | –
11 | NC(=O)c1cc(COC(=O)NC2CC3(CCN(c4cncc(-c5ccc(F)cc5)n4)CC3)C2)on1 [Compound 25, 3-carbamoylisoxazol-5-ylmethyl{7-[6-(4-fluorophenyl)pyrazin-2-yl]-7-azaspiro[3.5]non-2-yl}carbamate] | 1.7 nM | – | –
12 | CC(C)Cc1ccc(N2CCC3(CC2)CC(NC(=O)OCc2cc(C(N)=O)no2)C3)nc1 [Compound 31, 3-Carbamoylisoxazol-5-ylmethyl[7-(5-isobutylpyridin-2-yl)-7-azaspiro[3,5]non-2-yl]carbamate] | 4.3 nM | 178 to 180 °C | –
13 | NC(=O)c1cc(COC(=O)NC2CC23CCN(c2nccc(C(F)(F)F)n2)CC3)on1 (stereo not drawn) [Compound 40, 3-Carbamoylisoxazol-5-ylmethyl[6-(4-trifluoromethylpyrimidin-2-yl)-6-azaspiro[2.5]oct-1-yl]carbamate] | 0.5 nM | – | –
